Among the data in PubChem BioAssay (NCI) are TGI values, retold here.

Holding throughout (experiment): NCI-60 cell line screen, 48 h
The subject of assay [1] is HCT-116 colon.
Assay [2] relates to SF-539 CNS.
The test system of assay [3] is NCI/ADR-RES ovarian.
Assay [4] relates to UO-31 renal.
Assay [5] concerns NCI-H460 lung.
Assay [6] relates to U251 CNS.
For assay [7], the system named is PC-3 prostate.
In assay [8] the test system is SN12C renal.
Assay [9] relates to HS 578T breast.
The test system of assay [10] is M14 melanoma.
In assay [11] the test system is IGROV1 ovarian.
Assay [12] has as its system CCRF-CEM leukemia.
In assay [13] the test system is A549 NSCLC.
Assay [14] deals with TK-10 renal.
Assay [15] deals with CAKI-1 renal.
The subject of assay [16] is MOLT-4 leukemia.
Assay [17] concerns SK-MEL-28 melanoma.
Assay [18] relates to OVCAR-5 ovarian.
The test system of assay [19] is HCC-2998 colon.
Assay [20] concerns A498 renal.

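These data come from cells grown in 96-well plates and exposed to compound for 48 hours at five concentrations. TGI: concentration producing complete growth inhibition.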 A value given as a limit tells only on which side of the number the result lay.

As to `CCn1c(O)c(C=Nc2ccccc2)s/c1=N/Nc1nc(-c2ccc(O)c(O)c2)cs1`, the TGI in [1] was greater than 100 µM; in assay [2], 4.76 µM; in [3] it was greater than 100 µM; in assay [4], greater than 100 µM; in assay [5], greater than 100 µM; in assay [6] it was greater than 100 µM. Further, the TGI was greater than 100 µM in assay [7]; greater than 100 µM in assay [8]; greater than 100 µM in assay [9]; greater than 100 µM in assay [10]; greater than 100 µM in assay [11]; 57 µM in assay [12]. The TGI in assay [13] was greater than 100 µM; in assay [14], greater than 100 µM; in assay [15], greater than 100 µM; in assay [16], 92.2 µM; in [17], greater than 100 µM; in assay [18] it was greater than 100 µM.
For `Cc1cccc(/C=N/NC(=S)N(C)CCc2ccccn2)n1`, the TGI in [1] is greater than 100 µM; in [2] it was 6.8 µM; in assay [19] it was greater than 100 µM; in [4], 2.36 µM; in assay [5] it was greater than 52.5 µM; in assay [6], greater than 100 µM. Besides, the TGI in assay [7] was greater than 100 µM; in [8], greater than 100 µM; in assay [9] it was greater than 100 µM; in assay [10] it was 2.38 µM; in assay [11], 24.6 µM; in assay [12], 0.0974 µM. In addition, the TGI in assay [13] was greater than 100 µM; in assay [20], 1.03 µM; in assay [14], greater than 100 µM; in assay [15] it was 32.7 µM; in [16], greater than 100 µM; in [17], greater than 100 µM. Moreover, the TGI in assay [18] is greater than 100 µM.
With `CC(NC(=O)OC(C)(C)C)C(=O)NC(Cc1ccccc1)C(=O)NCC(=O)Oc1c(Cl)c(Cl)c(Cl)c(Cl)c1Cl` (configuration not stated), the TGI is 43.9 µM in [1]; 30.6 µM in assay [19]; 33.9 µM in [4]; 63.3 µM in assay [5]; 46.7 µM in [6]; 49.4 µM in assay [7]. In addition, the TGI in assay [8] is 30.4 µM; in assay [9], greater than 100 µM; in assay [10], 73.8 µM; in assay [11], 44.2 µM; in assay [13], 48.1 µM; in assay [20] it was 47.8 µM. Further, the TGI was 71.5 µM in assay [14], 59.3 µM in [16], 71.1 µM in assay [17] and 42.8 µM in assay [18].
`Clc1ccc(-c2nc3ccc4ccccc4c3c3c2CCCC3)cc1`: the TGI in assay [1], in assay [2], in assay [19], in assay [3], in assay [4] and in assay [5] was greater than 100 µM throughout. Moreover, the TGI in assay [6], in assay [9], in assay [10], in assay [11], in assay [12] and in assay [13] was greater than 100 µM throughout. In addition, the TGI in [20], in assay [14], in assay [15], in assay [16], in assay [17] and in [18] was greater than 100 µM each time.
Turning to `CCCCCCC1CC(=O)C1(Cl)Cl` (configuration not stated), the TGI in assay [1] was 30.4 µM; in assay [2], greater than 100 µM; in [19] it was 57.4 µM; in assay [3] it was greater than 100 µM; in assay [4] it was 34.2 µM; in [6], greater than 100 µM. The TGI in assay [7] is greater than 100 µM; in assay [8] it was 98.1 µM; in assay [9], greater than 100 µM; in assay [10] it was 62.6 µM; in assay [11], 61.8 µM; in assay [12] it was 29.6 µM. Further, the TGI in assay [13] was greater than 100 µM; in assay [14], greater than 100 µM; in assay [15], 33.3 µM; in assay [16], 52.1 µM; in assay [18] it was greater than 100 µM.
For the compound `COCOc1c(C(OCOC)c2cnc(Sc3ccccc3)n2C)ccc(OC)c1OC` (configuration not stated), the TGI in assay [1], in assay [2], in assay [19], in assay [3], in [4] and in assay [5] was greater than 100 µM throughout. Moreover, the TGI in [6], in [7], in [8], in assay [9], in assay [11] and in assay [12] was greater than 100 µM throughout. In addition, the TGI in [13], in assay [14], in assay [15], in assay [16], in [17] and in assay [18] was greater than 100 µM each time.
Regarding `O=C(c1ccccc1)N1CCC(Nc2nccs2)O1` (configuration not stated), the TGI in [1], in assay [2], in assay [19], in assay [3], in [4] and in assay [5] was greater than 10 µM throughout. Also, the TGI in [7], in assay [8], in assay [9], in [10], in [11] and in assay [12] was greater than 10 µM in each case. The TGI in [13], in [14], in [15], in [16], in assay [17] and in assay [18] was greater than 10 µM in each case.
In the case of `NNc1ncc2c(n1)-c1ccccc1OC2`, the TGI in assay [1], in assay [2], in assay [3], in [4], in assay [5] and in assay [6] was greater than 100 µM throughout. The TGI in assay [7], in [8], in [9], in assay [10], in [11] and in assay [12] was greater than 100 µM throughout. For the same compound, the TGI in assay [13], in assay [14], in [15], in [16], in assay [17] and in assay [18] was greater than 100 µM throughout.
